Experimental findings from US12258360B2, “Compositions and methods for treatment of anticancer-drug resistant cancers” (THE GEORGE WASHINGTON UNIVERSITY, priority 2020, dated 2025) are described below.

Series [1] deals with MCF7 xenograft. The series is classed as in vivo, mice. How it is done: To evaluate the potency of And-1 inhibitors in vivo, IGROV1 or MCF7 cells were subcutaneously implanted into nude mice to form ovarian or breast tumors, respectively. In brief, 5-6 week-old female BALB/c athymic nude mice (CByJ.Cg-Foxn1nu/J, weighting 20-25 grams) were inoculated subcutaneously by injecting the OC cells, cisplatin resistant OC cells or breast cancer cells suspended in 100 μl ice-cold Matrigel/PBS (1:1, V:V; 5×10^6/mouse) into the dorsal flank of each mouse. When the average tumor volume reached 100-150 mm^3, the mice were randomized into subsequent experiment groups. For tumors treated with CH3 only, CH3 was given at 0 mg/kg, 20 mg/kg and 40 mg/kg via intraperitoneal injection twice a week for three weeks. […] The relative tumor volumes were calculated using the formula: a×(b^2)/2, for which a and b represented the longest and shortest diameters, respectively. During the drug treatment, the tumor volume and body weight were measured. Tumor samples were collected 4 days after final administration of the drug.

The target of series [2] is T1, And-1 (Homo sapiens, UniProt O75717).
T1 sequence (O75717 1-1129): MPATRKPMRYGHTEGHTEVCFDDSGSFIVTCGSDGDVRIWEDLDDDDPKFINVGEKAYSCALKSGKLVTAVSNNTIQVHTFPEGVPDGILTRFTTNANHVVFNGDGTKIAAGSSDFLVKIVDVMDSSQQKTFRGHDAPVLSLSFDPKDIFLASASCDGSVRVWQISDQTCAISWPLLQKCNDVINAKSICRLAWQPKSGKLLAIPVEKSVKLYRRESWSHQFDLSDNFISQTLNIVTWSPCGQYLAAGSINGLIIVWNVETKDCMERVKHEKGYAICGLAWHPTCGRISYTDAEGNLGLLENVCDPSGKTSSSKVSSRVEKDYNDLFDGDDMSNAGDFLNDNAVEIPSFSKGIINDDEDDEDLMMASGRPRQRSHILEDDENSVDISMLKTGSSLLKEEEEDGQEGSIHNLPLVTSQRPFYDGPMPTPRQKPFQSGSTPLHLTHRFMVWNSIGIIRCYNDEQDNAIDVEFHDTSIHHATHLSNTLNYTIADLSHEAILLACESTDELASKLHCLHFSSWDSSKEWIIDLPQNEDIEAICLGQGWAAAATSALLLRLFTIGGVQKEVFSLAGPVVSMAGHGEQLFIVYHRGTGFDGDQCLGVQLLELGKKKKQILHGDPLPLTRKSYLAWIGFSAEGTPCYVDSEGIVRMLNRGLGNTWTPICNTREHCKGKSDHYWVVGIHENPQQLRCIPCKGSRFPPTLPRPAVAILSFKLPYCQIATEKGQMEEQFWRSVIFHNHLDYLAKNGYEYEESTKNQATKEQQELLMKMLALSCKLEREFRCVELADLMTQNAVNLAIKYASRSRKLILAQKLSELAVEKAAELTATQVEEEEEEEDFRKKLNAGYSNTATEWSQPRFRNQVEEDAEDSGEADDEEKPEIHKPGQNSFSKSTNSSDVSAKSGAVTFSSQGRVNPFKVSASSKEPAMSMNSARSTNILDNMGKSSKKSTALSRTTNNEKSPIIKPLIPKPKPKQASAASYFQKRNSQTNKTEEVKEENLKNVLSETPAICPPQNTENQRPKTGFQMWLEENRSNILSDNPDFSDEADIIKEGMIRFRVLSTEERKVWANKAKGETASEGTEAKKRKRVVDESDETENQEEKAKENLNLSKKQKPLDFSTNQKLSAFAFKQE
The experiment in a line: fluorescent boron sensor DAHMI staining of live IGROV1 cells. Format: cell-based. Also noted: endogenous in cells; host or cells: IGROV1 CR. The text has this: Boron-containing compounds can be visualized using a fluorescent boron sensor DAHMI. To determine the binding specificity of CH3 to And-1, the distribution of CH3 in live cells was examined using DAHMI.

Series [3] addresses T1, And-1. The experiment in a line: immunoprecipitation of And-1 and anti-ubiquitin immunoblot in IGROV1 cells. Format: cell-based. Also noted: endogenous in cells; host or cells: IGROV1 CR. The protocol:
IGROV1 cells were treated with CH3 in the absence and presence of the 26S proteasome inhibitor MG132 (Benzyl N-[(2S)-4-methyl-1-[[(2S)-4-methyl-1-[[(2S)-4-methyl-1-oxopentan-2-yl]amino]-1-oxopentan-2-yl]amino]-1-oxopentan-2-yl]carbamate). […] Protein degradation through the proteasome requires conjugation of one or more ubiquitin molecules to the target. To address whether And-1 was modified by ubiquitin in IGROV1 cells treated with CH3, And-1 protein was immunoprecipitated and probed with anti-ubiquitin antibody.
For orientation: A western blot detects proteins with antibodies after separation by electrophoresis.

In series [4] the test system is NCI 60 tumor cell lines. Put plainly: NCI 60 tumor cell lines growth assay. The series is classed as cell-based. How it is done: To test this hypothesis, inhibition of CH3 on cancer cells was evaluated by using NCI 60 tumor cell lines.
Series [5] has as its system IGROV1 CR cells. Put plainly: clonogenic assay, combination with cisplatin. Format: cell-based, human.
Description: Clonogenic survival assays were also performed. In brief, cells were seeded in 6-well dishes at a density of 500 cells per dish then treated with the cisplatin at the indicated concentrations (See FIGS. 23 and 24). Cells were then kept in the incubator for 10-14 days to allow colony formation. Colonies were visualized by crystal violet staining. Colonies with >50 cells were counted.
In series [6] the test system is recruitment of CtIP to DSB sites in IGROV1 cells. Put plainly: immunofluorescence assay of CtIP co-localization with γH2AX after micro-irradiation. The series is classed as cell-based, human. The following applies: 1 μM, 30 minutes post irradiation. How it is done:
H2AX (H2A histone family member X) becomes phosphorylated on serine 139 (wherein the phosphorylated form is then called […]) as a reaction on DNA double-strand breaks (DSB). And-1 regulates DSB end resection by establishing a condition or acting as a platform for recruitment of the tumor suppressor protein CtIP—a CtBP (carboxy-terminal binding protein)-interacting protein, to the DSB sites. […] In brief, IGROV1 cells were cultured on coverslips coated with 0.01% of poly-L-lysine. After treatment, the cells were then washed once with PBS, then pre-extracted with 0.5% Triton X-100 extraction buffer (10 mM PIPES pH 7.0, 100 mM NaCl, 3 mM MgCl2 and 300 mM sucrose) on ice for 5 minutes. After washing with PBS, cells were fixed with 4% paraformaldehyde in PBS for 15 minutes. Cells were then washed and incubated for 10 minutes in blocking buffer (PBS containing 3% BSA and 0.02% Tween-20) and subsequently incubated for 1 hour with a primary antibody at room temperature. Cells were washed three times with PBS-T (PBS containing 0.02% Tween-20) and then incubated with a secondary antibody (e.g., rabbit Alexa Fluor-594 and mouse Alexa Fluor-488). After washing with PBS-T, cells were mounted with Fluoromount G containing DAPI (4′,6-diamidino-2-phenylindole—a fluorescent stain that binds strongly to adenine-thymine-rich regions in DNA). Slides were then imaged using a Nikon Eclipse 80i microscope. […]

As for `OB1OCc2cc(/C=C/c3ccc(Cl)c(Cl)c3)ccc21` [CH3], in series [1] (MCF7 xenograft), the “And-1 expression in tumor (IHC)” value was “inhibited And-1 expression” and the “apoptosis in tumor (cleaved caspase-3 IHC)” value is “induced apoptosis in tumor”. Further, the tumor growth result in series [1] (MCF7 xenograft, 20 or 40 mg/kg intraperitoneally, three weeks) is listed as “significantly reduced tumor growth”. Moreover, the “systemic toxicity (body weight, H&E staining of heart, liver, kidney and lung)” value in series [1] (mouse, in vivo) is on record as “systemic toxicity or obvious side effects were not observed”. Also, the “distribution of compound in live cells (DAHMI)” value in series [2] is recorded as “detected in nuclei”. Also, in series [3], the “ubiquitinated And-1 bands” value is listed as “increased”. In addition, the “cancer cell growth inhibition” value in series [4] (0.01-100 μM, 60 tumor cell lines) is recorded as “inhibited cancer cell growth in all 60 tumor cell lines in a dose dependent manner”. The compound also registered a mean growth percentage in series [4] (one dose assay, 10 μM, against 60 tumor cell lines) of 1.84%. The “synergy with cisplatin on clonogenic capacity” value in series [5] was “synergy with cisplatin to reduce clonogenic capacity”. Further, the “recruitment of CtIP to DSB sites induced by micro-irradiation” value in series [6] is “significantly decreased”.
